20 molecules from patent US20250145587A1, “BROMODOMAIN INHIBITORS” (AbbVie Inc., priority 2016, published 2025) can be followed below.

As usually defined, the Ki is a dissociation constant, usually derived from enzyme kinetics or from competition with a known ligand.

This test addresses BRD4 (BDI_K57-E168) (Homo sapiens, UniProt O60885). In words: TR-FRET bromodomain binding assay, BRD4 first bromodomain (BDI). On the procedure:
A time-resolved fluorescence resonance energy transfer (TR-FRET) assay was used to determine the affinities of compounds of the Examples listed in Table 1 for each bromodomain of BRD4. […] An Alexa647-labeled BET-inhibitor was used as the fluorescent probe in the assay.
Compound dilution series were prepared in DMSO via an approximately 3-fold serial dilution. Compound dilutions were added directly into white, low-volume assay plates (Perkin Elmer Proxiplate 384 Plus #6008280) using a Labcyte Echo in conjunction with Labcyte Access and Thermo Multidrop CombinL robotics. Compounds were then suspended in eight microliters (μL) of assay buffer (20 mM Sodium Phosphate, pH 6.0, 50 mM NaCl, 1 mM Ethylenediaminetetraacetic acid disodium salt dihydrate, 0.01% Triton X-100, 1 mM DL-Dithiothreitol) containing His-tagged bromodomain, Europium-conjugated anti-His antibody (Invitrogen PV5596) and Alexa-647-conjugated probe.
After a one-hour equilibration at room temperature, TR-FRET ratios were determined using an Envision multilabel plate reader (Ex 340, Em 495/520).
TR-FRET data were normalized to the means of 24 no-compound controls (“high”) and 8 controls containing 1 μM un-labeled probe (“low”). Percent inhibition was plotted as a function of compound concentration and the data were fit with the 4 parameter logistic equation to obtain IC50s. Inhibition constants (Ki) were calculated from the IC50s, probe Kd and probe concentration.
Compound dilution series for Compounds A-E were prepared in DMSO via an approximately 3-fold serial dilution from 0.47 mM to 7.8 nM.
Compound dilutions were added directly into white, low-volume assay plates (Perkin Elmer Proxiplate 384 Plus #6008280) using a Labcyte Echo in conjunction with Labcyte Access and Thermo Multidrop CombinL robotics. Compounds were then suspended in eight microliters (μL) of assay buffer (20 mM Sodium Phosphate, pH 6.0, 50 mM NaCl, 1 mM Ethylenediaminetetraacetic acid disodium salt dihydrate, 0.01% Triton X-100, 1 mM DL-Dithiothreitol) containing His-tagged bromodomain, Europium-conjugated anti-His antibody (Invitrogen PV5596) and Alexa-647-conjugated probe.
The final concentration of 1× assay mixture contained 2% DMSO, 8 nM His-tagged bromodomain, 1 nM Europium-conjugated anti-His-tag antibody and 100 nM or 30 nM probe (for BDI or BDII, respectively) and compound concentration in the range of […]-150 μM.
TR-FRET data were normalized to the means of 24 no-compound controls (“high”) and 8 controls containing 1 μM un-labeled probe (“low”). Percent inhibition was plotted as a function of compound concentration and the data were fit with the 4 parameter logistic equation to obtain IC50s. Inhibition constants (Ki) were calculated from the IC50s, probe Kd and probe concentration. Typical Z′ values were between 0.65 and 0.75. The minimum significant ratio was determined to evaluate assay reproducibility (Eastwood et al., (2006) J Biomol Screen, 11: 253-261). The MSR was determined to be 2.03 for BDI and 1.93 for BDII, and a moving MSR (last six run MSR overtime) for both BDI and BDII was typically <3.
(In general: Time-resolved FRET reads energy transfer from a long-lived donor to a nearby acceptor.)
In turn, `CCS(=O)(=O)c1ccc(Oc2c(C)cccc2C)c(-c2cn(C)c(=O)cc2O[C@H]2CC[C@H](NC(C)=O)CC2)c1` [Example 1, N-[trans-4-({5-[2-(2,6-dimethylphenoxy)-5-(ethanesulfonyl)phenyl]-1-methyl-2-oxo-1,2-dihydropyridin-4-yl}oxy)cyclohexyl]acetamide] had a Ki of 1160 nM. This lies in the single-digit micromolar range.

As to `CCS(=O)(=O)c1ccc(Oc2c(C)cccc2C)c(-c2cn(C)c(=O)cc2O[C@H]2CC[C@@H](NC(C)=O)CC2)c1` [Example 2, N-[cis-4-({5-[2-(2,6-dimethylphenoxy)-5-(ethanesulfonyl)phenyl]-1-methyl-2-oxo-1,2-dihydropyridin-4-yl}oxy)cyclohexyl]acetamide], the Ki was 2800 nM.

Consider `CCS(=O)(=O)c1ccc(Oc2c(C)cccc2C)c(-c2cn(C)c(=O)cc2O[C@H]2CC[C@H](NC(=O)OC)CC2)c1` [Example 3, methyl [trans-4-({5-[2-(2,6-dimethylphenoxy)-5-(ethanesulfonyl)phenyl]-1-methyl-2-oxo-1,2-dihydropyridin-4-yl}oxy)cyclohexyl]carbamate], for which the inhibitory constant (Ki) worked out at 1050 nM.

`CCS(=O)(=O)c1ccc(Oc2c(C)cccc2C)c(-c2cn(C)c(=O)cc2O[C@H]2CC[C@H](NS(C)(=O)=O)CC2)c1` [Example 4, N-[trans-4-({5-[2-(2,6-dimethylphenoxy)-5-(ethanesulfonyl)phenyl]-1-methyl-2-oxo-1,2-dihydropyridin-4-yl}oxy)cyclohexyl]methanesulfonamide] registered an inhibition constant (Ki) of 1050 nM.

Consider `CCS(=O)(=O)c1ccc(Oc2c(C)cccc2C)c(-c2cn(C)c(=O)cc2O[C@H]2CC[C@H](NC(=O)OC(C)(C)C)CC2)c1` [Example 5, tert-butyl [trans-4-({5-[2-(2,6-dimethylphenoxy)-5-(ethanesulfonyl)phenyl]-1-methyl-2-oxo-1,2-dihydropyridin-4-yl}oxy)cyclohexyl]carbamate], for which the affinity corresponds to a Ki of 1280 nM.

As to `CCS(=O)(=O)c1ccc(Oc2c(C)cccc2C)c(-c2cn(C)c(=O)cc2O[C@H]2CC[C@H](NC(=O)C(F)(F)F)CC2)c1` [Example 6, N-[trans-4-({5-[2-(2,6-dimethylphenoxy)-5-(ethanesulfonyl)phenyl]-1-methyl-2-oxo-1,2-dihydropyridin-4-yl}oxy)cyclohexyl]-2,2,2-trifluoroacetamide], the Ki turned out to be 823 nM. Against the preceding molecule, the Ki is about 1.6-fold lower.

With `CCC(=O)N[C@H]1CC[C@H](Oc2cc(=O)n(C)cc2-c2cc(S(=O)(=O)CC)ccc2Oc2c(C)cccc2C)CC1` [Example 7, N-[trans-4-({5-[2-(2,6-dimethylphenoxy)-5-(ethanesulfonyl)phenyl]-1-methyl-2-oxo-1,2-dihydropyridin-4-yl}oxy)cyclohexyl]propanamide], the Ki worked out at 489 nM.

The molecule `CCS(=O)(=O)c1ccc(Oc2c(C)cccc2C)c(-c2cn(C)c(=O)cc2O[C@H]2CC[C@H](NC(=O)C(C)(C)C)CC2)c1` [Example 8, N-[trans-4-({5-[2-(2,6-dimethylphenoxy)-5-(ethanesulfonyl)phenyl]-1-methyl-2-oxo-1,2-dihydropyridin-4-yl}oxy)cyclohexyl]-2,2-dimethylpropanamide] registered a Ki of 627 nM.

The molecule `CCS(=O)(=O)c1ccc(Oc2c(C)cccc2C)c(-c2cn(C)c(=O)cc2O[C@H]2CC[C@H](NC(=O)COC)CC2)c1` [Example 9, N-[trans-4-({5-[2-(2,6-dimethylphenoxy)-5-(ethanesulfonyl)phenyl]-1-methyl-2-oxo-1,2-dihydropyridin-4-yl}oxy)cyclohexyl]-2-methoxyacetamide] gave an inhibitory constant (Ki) of 474 nM.

Molecule `CCS(=O)(=O)c1ccc(Oc2c(C)cccc2C)c(-c2cn(C)c(=O)cc2O[C@H]2CC[C@H](NC(=O)C3(C)CC3)CC2)c1` [Example 10, N-[trans-4-({5-[2-(2,6-dimethylphenoxy)-5-(ethanesulfonyl)phenyl]-1-methyl-2-oxo-1,2-dihydropyridin-4-yl}oxy)cyclohexyl]-1-methylcyclopropane-1-carboxamide] yielded a Ki of 524 nM.

`CCS(=O)(=O)c1ccc(Oc2c(C)cccc2C)c(-c2cn(C)c(=O)cc2O[C@H]2CC[C@H](NC(=O)C3CC3)CC2)c1` [Example 11, N-[trans-4-({5-[2-(2,6-dimethylphenoxy)-5-(ethanesulfonyl)phenyl]-1-methyl-2-oxo-1,2-dihydropyridin-4-yl}oxy)cyclohexyl]cyclopropanecarboxamide] yielded a Ki of 773 nM.

`CCS(=O)(=O)c1ccc(Oc2c(C)cccc2C)c(-c2cn(C)c(=O)cc2O[C@H]2CC[C@H](NC(=O)C3(C)COC3)CC2)c1` [Example 12, N-[trans-4-({5-[2-(2,6-dimethylphenoxy)-5-(ethanesulfonyl)phenyl]-1-methyl-2-oxo-1,2-dihydropyridin-4-yl}oxy)cyclohexyl]-3-methyloxetane-3-carboxamide]: the affinity corresponds to a Ki of 301 nM.

The molecule `CCS(=O)(=O)c1ccc(Oc2c(C)cccc2C)c(-c2cn(C)c(=O)cc2O[C@H]2CC[C@H](NC(=O)C3CC(F)(F)C3)CC2)c1` [Example 13, N-[trans-4-({5-[2-(2,6-dimethylphenoxy)-5-(ethanesulfonyl)phenyl]-1-methyl-2-oxo-1,2-dihydropyridin-4-yl}oxy)cyclohexyl]-3,3-difluorocyclobutane-1-carboxamide] returned a Ki of 462 nM.

With `CCS(=O)(=O)Nc1ccc(Oc2c(C)cc(C(C)(C)O)cc2C)c(-c2cn(C)c(=O)cc2O[C@H]2CC[C@H](NC(C)=O)CC2)c1` [Example 14, N-{trans-4-[(5-{5-[(ethanesulfonyl)amino]-2-[4-(2-hydroxypropan-2-yl)-2,6-dimethylphenoxy]phenyl}-1-methyl-2-oxo-1,2-dihydropyridin-4-yl)oxy]cyclohexyl}acetamide], the affinity corresponds to a Ki of 95.3 nM.

`CCS(=O)(=O)Nc1ccc(Oc2c(C)cc(C(C)(C)O)cc2C)c(-c2cn(C)c(=O)cc2O[C@H]2CC[C@H](NC(=O)OC)CC2)c1` [Example 15, methyl {trans-4-[(5-{5-[(ethanesulfonyl)amino]-2-[4-(2-hydroxypropan-2-yl)-2,6-dimethylphenoxy]phenyl}-1-methyl-2-oxo-1,2-dihydropyridin-4-yl)oxy]cyclohexyl}carbamate] came in with an inhibitory constant (Ki) of 102 nM. The Ki values of the last two molecules are within 1.5-fold of each other.

Molecule `CCS(=O)(=O)Nc1ccc(Oc2c(C)cc(F)cc2C)c(-c2cn(C)c(=O)cc2O[C@H]2CC[C@H](NC(=O)OC)CC2)c1` [Example 16, methyl {trans-4-[(5-{5-[(ethanesulfonyl)amino]-2-(4-fluoro-2,6-dimethylphenoxy)phenyl}-1-methyl-2-oxo-1,2-dihydropyridin-4-yl)oxy]cyclohexyl}carbamate] displayed a Ki of 313 nM.

Turning to `CCS(=O)(=O)Nc1cnc(Oc2c(C)cc(F)cc2C)c(-c2cn(C)c(=O)cc2O[C@H]2CC[C@H](NC(=O)OC)CC2)c1` [Example 17, methyl [trans-4-({5′-[(ethanesulfonyl)amino]-2′-(4-fluoro-2,6-dimethylphenoxy)-1-methyl-6-oxo[1,6-dihydro[3,3′-bipyridine]]-4-yl}oxy)cyclohexyl]carbamate], the Ki was determined as 419 nM.

The molecule `COC(=O)N[C@H]1CC[C@H](Oc2cc(=O)n(C)cc2-c2cc(CS(C)(=O)=O)ccc2Oc2c(C)cc(F)cc2C)CC1` [Example 18, methyl {trans-4-[(5-{2-(4-fluoro-2,6-dimethylphenoxy)-5-[(methanesulfonyl)methyl]phenyl}-1-methyl-2-oxo-1,2-dihydropyridin-4-yl)oxy]cyclohexyl}carbamate] gave an inhibitory constant (Ki) of 903 nM.

`CCS(=O)(=O)c1ccc(Oc2c(C)cc(F)cc2C)c(-c2cn(C)c(=O)cc2O[C@H]2CC[C@H](N3CCCC3=O)CC2)c1` [Example 19, 5-[5-(ethanesulfonyl)-2-(4-fluoro-2,6-dimethylphenoxy)phenyl]-1-methyl-4-{[trans-4-(2-oxopyrrolidin-1-yl)cyclohexyl]oxy}pyridin-2(1H)-one] returned a Ki of 615 nM.

The molecule `CCS(=O)(=O)c1ccc(Oc2c(C)cc(F)cc2C)c(-c2cn(C)c(=O)cc2O[C@H]2CC[C@H](N(C)C(C)=O)CC2)c1` [Example 20, N-[trans-4-({5-[5-(ethanesulfonyl)-2-(4-fluoro-2,6-dimethylphenoxy)phenyl]-1-methyl-2-oxo-1,2-dihydropyridin-4-yl}oxy)cyclohexyl]-N-methylacetamide] displayed a Ki of 461 nM.
